From patent publication US20100137267A1, “FORMULATIONS FOR TREATMENT OF ADIPOSE TISSUE, CUTANEOUS TISSUE AND DISORDERS, AND MUSCULAR TISSUE” (priority 2006, published 2010)
“Also recorded” adds a separate entry of the source.

Legend:
[1] = Octanol:Water; cited from earlier work
[2] = compared with albuterol 5, a short acting hydrophilic beta adrenergic agonist; cited from earlier work
[3] = system: cultured human adipocytes; experiment: In vitro lipolysis assay (glycerol release) in cultured adipocytes; assay type: cell-based; settings: for lipolysis after 18 hour incubation: Salmeterol 10^−6 M or 10^−8 M, Budesonide 10^−6 M in combination; for increase in lipolysis: relative to negative control (0.1% DMSO), Isoproterenol 10^−6 M positive control
Protocol: In the in vitro lipolysis assay, glycerol was detected in cell culture media via a spectrophotometric measurement after chemical oxidation with hydrogen peroxide. Glycerol was measured over a three hour time period. Levels of lipolysis in cultured human adipocytes were tested after exposure to a beta adrenergic agonist alone, a glucocorticosteroid alone, or the combination of the two for one or more preincubation periods as described in more detail below.
Human subcutaneous adipocytes were used in the lipolysis assay. Adipose tissue was harvested from liposuction or lipectomy and pre-adipocytes were isolated as follows. Briefly, fat tissue was minced and incubated at 37° C. in Krebs-Ringer bicarbonate buffer containing 1% bovine serum albumin and 0.1% collagenase in an oxygen-rich shaking chamber (5% CO2; 75 strokes/min) for 1 hour. The suspension was filtered through a 400 μm nylon mesh and centrifuged for 1 min at 100 g. The pre-adipocytes in the supernatant were washed twice with and then plated in 96 well plates at a density of cells/well. The pre-adipocytes were cultured in maintenance medium for seven days as they differentiated into adipocytes.
At −21 hours before the lipolysis assay, medium was removed from each well and replaced with 75 μl of Maintenance Medium containing appropriate drug or DMSO (vehicle) concentrations (see Experimental Design section below). Each test drug or control treatment was applied to 8 wells/group (12 treatment groups per 96-well plate). At −3 hours prior to the lipolysis assay, each well was washed two times with Wash Buffer (200 μl/wash), filled with test or control solutions made up in Assay Buffer (75 μl/well), and then incubated for three hours, i.e., until measurement of glycerol content in the Assay Buffer. For some groups, a drug was only added for the three hour incubation period (see Experimental and Control Groups Below).
The glycerol content of the Assay Buffer from each well following the incubation was used as an index for lipolysis, where an increase in glycerol indicated lipolysis. Glycerol levels were assayed colorimetrically via a commercial glycerol assay kit (Randox Laboratory, United Kingdom) and quantified by comparison to a glycerol serial dilution standard curve (3 μM-200 μM). Glycerol concentrations for each well were normalized to cell density.
In each of the following control or experimental groups n=8 corresponding to the glycerol measurements for 8 wells from a 96-well cell culture plate.

| Molecule | Log P [1] | lipophilicity relative to albuterol [2] | lipolysis after 18 hour incubation ([3]; Isoproterenol 10^−6 M) | increase in lipolysis ([3]; three hour incubation) | induction of lipolysis in cultured adipocytes (figure legend) ([3]; three hour incubation) | lipolysis compared with Isoproterenol (positive control) ([3]; three hour incubation, Isoproterenol 10^−6 M, formoterol statement holds for concentrations of 10^−6 M and above) |
| --- | --- | --- | --- | --- | --- | --- |
| COc1ccc(C[C@@H](C)NC[C@H](O)c2ccc(O)c(NC=O)c2)cc1 (racemic) [Formoterol, ±N-[2-hydroxy-5-[1-hydroxy-2-[1-(4-methoxyphenyl)propan-2-ylamino]ethyl]phenyl]methanamide] | 2-4 | – | – | – | – | – |
| OCc1cc(C(O)CNCCCCCCOCCCCc2ccccc2)ccc1O (racemic) [Salmeterol, ±2-(hydroxymethyl)-4-[1-hydroxy-2-[6-(4-phenylbutoxy)hexylamino]ethyl]-phenol] | – | at least 10,000 times | decreased lipolysis; also recorded: dose-dependent suppression of lipolysis | – | – | – |
| CC(C)NCC(O)c1ccc(O)c(O)c1 (stereo not drawn) [Isoproterenol, isoproterenol] | – | – | decreased lipolysis | about 2.5 fold | – | – |
| budesonide | – | – | slight suppression of lipolysis | up to 1.5 fold | dose-dependent induction of lipolysis | lower than that observed for Isoproterenol |
